Experimental data: ChEMBL document CHEMBL5236661, “A new selective inhibitor for IMP-1 metallo-β-lactamase, 3Z,5E-octa-3,5-diene-1,3,4-tricarboxylic acid-3,4-anhydride” (Bioorg Med Chem, 2023)
Calls of active or inactive are those of the source. No cut-off for these calls is given here.

Columns and labels:
[1] = Inhibition of bacterial Metallo-beta-lactamase IMP-1 using nitrocefin as substrate pre-incubated for 15 mins followed by substrate addition by microplate reader; parameters: species or system Bacteria
[2] = system: Escherichia coli; assay: Antibacterial activity against Escherichia coli KB366 expressing IMP-1 assessed as inhibition of bacterial growth at 100 ug in presence of meropenem incubated overnight by paper disk method; assay type: functional; conditions: read-out: IZ
[3] = system: Escherichia coli; assay: Antibacterial activity against Escherichia coli KB366 expressing IMP-1 assessed as inhibition of bacterial growth at 30 ug in presence of meropenem incubated overnight by paper disk method; assay type: functional; conditions: read-out: IZ
[4] = system: Escherichia coli; assay: Antibacterial activity against Escherichia coli KB366 expressing IMP-1 assessed as inhibition of bacterial growth at 10 ug in presence of meropenem incubated overnight by paper disk method; assay type: functional; conditions: read-out: IZ
[5] = system: Escherichia coli; assay: Antibacterial activity against Escherichia coli KB366 expressing IMP-1 assessed as inhibition of bacterial growth at 3 ug in presence of meropenem incubated overnight by paper disk method; assay type: functional; conditions: read-out: IZ
[6] = system: Escherichia coli; assay: Antibacterial activity against Escherichia coli KB366 expressing IMP-1 assessed as inhibition of bacterial growth at 1 ug in presence of meropenem incubated overnight by paper disk method; assay type: functional; conditions: read-out: IZ
[7] = system: Escherichia coli; assay: Antibacterial activity against Escherichia coli KB366 expressing IMP-1 assessed as inhibition of bacterial growth at 0.3 ug in presence of meropenem incubated overnight by paper disk method; assay type: functional; conditions: read-out: IZ
[8] = system: Escherichia coli; assay: Antibacterial activity against Escherichia coli KB366 expressing IMP-1 assessed as inhibition of bacterial growth at 0.1 ug in presence of meropenem incubated overnight by paper disk method; assay type: functional; conditions: read-out: IZ
[9] = system: Escherichia coli; assay: Antibacterial activity against Escherichia coli KB366 expressing IMP-1 assessed as inhibition of bacterial growth at 0.03 ug in presence of meropenem incubated overnight by paper disk method; assay type: functional; conditions: read-out: IZ
[10] = system: Escherichia coli; assay: Antibacterial activity against Escherichia coli KB366 expressing IMP-1 assessed as inhibition of bacterial growth at 0.01 ug in presence of meropenem incubated overnight by paper disk method; assay type: functional; conditions: dose 0.01 µg
[11] = system: Escherichia coli; assay: Antibacterial activity against Escherichia coli KB366 expressing IMP-1 assessed as inhibition of bacterial growth at 100 ug in absence of meropenem incubated overnight by paper disk method; assay type: functional, organism-based; conditions: dose 100.0 µg
[12] = system: Escherichia coli; assay: Antibacterial activity against Escherichia coli KB366 expressing IMP-1 assessed as inhibition of bacterial growth at 30 ug in absence of meropenem incubated overnight by paper disk method; assay type: functional, organism-based; conditions: dose 30.0 µg
[13] = system: Escherichia coli; assay: Antibacterial activity against Escherichia coli KB366 expressing IMP-1 assessed as inhibition of bacterial growth at 10 ug in absence of meropenem incubated overnight by paper disk method; assay type: functional, organism-based; conditions: dose 10.0 µg
[14] = system: Escherichia coli; assay: Antibacterial activity against Escherichia coli KB366 expressing IMP-1 assessed as inhibition of bacterial growth at 3 ug in absence of meropenem incubated overnight by paper disk method; assay type: functional, organism-based; conditions: dose 3.0 µg
[15] = system: Escherichia coli; assay: Antibacterial activity against Escherichia coli KB366 expressing IMP-1 assessed as inhibition of bacterial growth at 1 ug in absence of meropenem incubated overnight by paper disk method; assay type: functional, organism-based; conditions: dose 1.0 µg
[16] = system: Escherichia coli; assay: Antibacterial activity against Escherichia coli KB366 expressing IMP-1 assessed as inhibition of bacterial growth at 0.3 ug in absence of meropenem incubated overnight by paper disk method; assay type: functional, organism-based; conditions: dose 0.3 µg
[17] = system: Escherichia coli; assay: Antibacterial activity against Escherichia coli KB366 expressing IMP-1 assessed as inhibition of bacterial growth at 0.1 ug in absence of meropenem incubated overnight by paper disk method; assay type: functional, organism-based; conditions: dose 0.1 µg
[18] = system: Escherichia coli; assay: Antibacterial activity against Escherichia coli KB366 expressing IMP-1 assessed as inhibition of bacterial growth at 0.03 ug in absence of meropenem incubated overnight by paper disk method; assay type: functional, organism-based; conditions: dose 0.03 µg
[19] = system: Escherichia coli; assay: Antibacterial activity against Escherichia coli KB366 expressing IMP-1 assessed as inhibition of bacterial growth at 0.01 ug in absence of meropenem incubated overnight by paper disk method; assay type: functional, organism-based; conditions: dose 0.01 µg
[20] = system: Pseudomonas aeruginosa; assay: Antibacterial activity against Pseudomonas aeruginosa KB367 expressing IMP-1 assessed as inhibition of bacterial growth at 100 ug in presence of meropenem incubated overnight by paper disk method; assay type: functional; conditions: read-out: IZ
[21] = system: Pseudomonas aeruginosa; assay: Antibacterial activity against Pseudomonas aeruginosa KB367 expressing IMP-1 assessed as inhibition of bacterial growth at 30 ug in presence of meropenem incubated overnight by paper disk method; assay type: functional; conditions: read-out: IZ
[22] = system: Pseudomonas aeruginosa; assay: Antibacterial activity against Pseudomonas aeruginosa KB367 expressing IMP-1 assessed as inhibition of bacterial growth at 10 ug in presence of meropenem incubated overnight by paper disk method; assay type: functional; conditions: read-out: IZ
[23] = system: Pseudomonas aeruginosa; assay: Antibacterial activity against Pseudomonas aeruginosa KB367 expressing IMP-1 assessed as inhibition of bacterial growth at 3 ug in presence of meropenem incubated overnight by paper disk method; assay type: functional; conditions: read-out: IZ
[24] = system: Pseudomonas aeruginosa; assay: Antibacterial activity against Pseudomonas aeruginosa KB367 expressing IMP-1 assessed as inhibition of bacterial growth at 1 ug in presence of meropenem incubated overnight by paper disk method; assay type: functional; conditions: dose 1.0 µg
[25] = system: Pseudomonas aeruginosa; assay: Antibacterial activity against Pseudomonas aeruginosa KB367 expressing IMP-1 assessed as inhibition of bacterial growth at 0.3 ug in presence of meropenem incubated overnight by paper disk method; assay type: functional, organism-based; conditions: dose 0.3 µg
[26] = system: Pseudomonas aeruginosa; assay: Antibacterial activity against Pseudomonas aeruginosa KB367 expressing IMP-1 assessed as inhibition of bacterial growth at 0.1 ug in presence of meropenem incubated overnight by paper disk method; assay type: functional, organism-based; conditions: dose 0.1 µg
[27] = system: Pseudomonas aeruginosa; assay: Antibacterial activity against Pseudomonas aeruginosa KB367 expressing IMP-1 assessed as inhibition of bacterial growth at 0.03 ug in presence of meropenem incubated overnight by paper disk method; assay type: functional, organism-based; conditions: dose 0.03 µg
[28] = system: Pseudomonas aeruginosa; assay: Antibacterial activity against Pseudomonas aeruginosa KB367 expressing IMP-1 assessed as inhibition of bacterial growth at 0.01 ug in presence of meropenem incubated overnight by paper disk method; assay type: functional, organism-based; conditions: dose 0.01 µg
[29] = system: Pseudomonas aeruginosa; assay: Antibacterial activity against Pseudomonas aeruginosa KB367 expressing IMP-1 assessed as inhibition of bacterial growth at 100 ug in absence of meropenem incubated overnight by paper disk method; assay type: functional, organism-based; conditions: dose 100.0 µg
[30] = system: Pseudomonas aeruginosa; assay: Antibacterial activity against Pseudomonas aeruginosa KB367 expressing IMP-1 assessed as inhibition of bacterial growth at 30 ug in absence of meropenem incubated overnight by paper disk method; assay type: functional, organism-based; conditions: dose 30.0 µg
[31] = system: Pseudomonas aeruginosa; assay: Antibacterial activity against Pseudomonas aeruginosa KB367 expressing IMP-1 assessed as inhibition of bacterial growth at 10 ug in absence of meropenem incubated overnight by paper disk method; assay type: functional, organism-based; conditions: dose 10.0 µg
[32] = system: Pseudomonas aeruginosa; assay: Antibacterial activity against Pseudomonas aeruginosa KB367 expressing IMP-1 assessed as inhibition of bacterial growth at 3 ug in absence of meropenem incubated overnight by paper disk method; assay type: functional, organism-based; conditions: dose 3.0 µg
[33] = system: Pseudomonas aeruginosa; assay: Antibacterial activity against Pseudomonas aeruginosa KB367 expressing IMP-1 assessed as inhibition of bacterial growth at 1 ug in absence of meropenem incubated overnight by paper disk method; assay type: functional, organism-based; conditions: dose 1.0 µg
[34] = system: Pseudomonas aeruginosa; assay: Antibacterial activity against Pseudomonas aeruginosa KB367 expressing IMP-1 assessed as inhibition of bacterial growth at 0.3 ug in absence of meropenem incubated overnight by paper disk method; assay type: functional, organism-based; conditions: dose 0.3 µg
[35] = system: Pseudomonas aeruginosa; assay: Antibacterial activity against Pseudomonas aeruginosa KB367 expressing IMP-1 assessed as inhibition of bacterial growth at 0.1 ug in absence of meropenem incubated overnight by paper disk method; assay type: functional, organism-based; conditions: dose 0.1 µg
[36] = system: Pseudomonas aeruginosa; assay: Antibacterial activity against Pseudomonas aeruginosa KB367 expressing IMP-1 assessed as inhibition of bacterial growth at 0.03 ug in absence of meropenem incubated overnight by paper disk method; assay type: functional, organism-based; conditions: dose 0.03 µg
[37] = system: Pseudomonas aeruginosa; assay: Antibacterial activity against Pseudomonas aeruginosa KB367 expressing IMP-1 assessed as inhibition of bacterial growth at 0.01 ug in absence of meropenem incubated overnight by paper disk method; assay type: functional, organism-based; conditions: dose 0.01 µg

**Q.** Which IC50 [1] does the source give for `CC/C=C/C(C(=O)[O-])=C(\CCC)C(=O)[O-].[Na+].[Na+]` here?
**A.** 2.2 µg/mL

**Q.** What about the zone of inhibition at 100 µg/disc [2] of the same molecule?
**A.** 30 mm

**Q.** What about the zone of inhibition at 30 µg/disc [3] of the same molecule?
**A.** 28 mm

**Q.** What about the zone of inhibition at 10 µg/disc [4] of the same molecule?
**A.** 26 mm

**Q.** What about the zone of inhibition at 3 µg/disc [5] of the same molecule?
**A.** 21 mm

**Q.** What about the zone of inhibition at 1 µg/disc [6] of the same molecule?
**A.** 19 mm

**Q.** And the zone of inhibition at 0.3 µg/disc [7]?
**A.** 16 mm

**Q.** And the zone of inhibition at 0.1 µg/disc [8]?
**A.** 13 mm

**Q.** And the zone of inhibition at 0.03 µg/disc [9]?
**A.** 11 mm

**Q.** What about the “inhibition zone (IZ)” value [10] of the same molecule?
**A.** inactive

**Q.** And the “inhibition zone (IZ)” value [11]?
**A.** inactive

**Q.** What about the “inhibition zone (IZ)” value [12] of the same molecule?
**A.** inactive

**Q.** What about the “inhibition zone (IZ)” value [13] of the same molecule?
**A.** inactive

**Q.** And the “inhibition zone (IZ)” value [14]?
**A.** inactive

**Q.** What about the “inhibition zone (IZ)” value [15] of the same molecule?
**A.** inactive

**Q.** And the “inhibition zone (IZ)” value [16]?
**A.** inactive

**Q.** And the “inhibition zone (IZ)” value [17]?
**A.** inactive

**Q.** And the “inhibition zone (IZ)” value [18]?
**A.** inactive

**Q.** What about the “inhibition zone (IZ)” value [19] of the same molecule?
**A.** inactive

**Q.** What about the zone of inhibition at 100 µg/disc [20] of the same molecule?
**A.** 23 mm

**Q.** And the zone of inhibition at 30 µg/disc [21]?
**A.** 19 mm

**Q.** And the zone of inhibition at 10 µg/disc [22]?
**A.** 14 mm

**Q.** And the zone of inhibition at 3 µg/disc [23]?
**A.** 7 mm

**Q.** And the “inhibition zone (IZ)” value [24]?
**A.** inactive

**Q.** And the “inhibition zone (IZ)” value [25]?
**A.** inactive

**Q.** And the “inhibition zone (IZ)” value [26]?
**A.** inactive

**Q.** And the “inhibition zone (IZ)” value [27]?
**A.** inactive

**Q.** What about the “inhibition zone (IZ)” value [28] of the same molecule?
**A.** inactive

**Q.** What about the “inhibition zone (IZ)” value [29] of the same molecule?
**A.** inactive

**Q.** What about the “inhibition zone (IZ)” value [30] of the same molecule?
**A.** inactive

**Q.** What about the “inhibition zone (IZ)” value [31] of the same molecule?
**A.** inactive

**Q.** And the “inhibition zone (IZ)” value [32]?
**A.** inactive

**Q.** What about the “inhibition zone (IZ)” value [33] of the same molecule?
**A.** inactive

**Q.** And the “inhibition zone (IZ)” value [34]?
**A.** inactive

**Q.** What about the “inhibition zone (IZ)” value [35] of the same molecule?
**A.** inactive

**Q.** And the “inhibition zone (IZ)” value [36]?
**A.** inactive

**Q.** And the “inhibition zone (IZ)” value [37]?
**A.** inactive
